The source of these data is ChEMBL document CHEMBL1128355, “Benzophenone derivatives: a novel series of potent and selective inhibitors of human immunodeficiency virus type 1 reverse transcriptase” (J Med Chem, 1995).

As a reminder, the IC50 is the concentration at which inhibition is half-maximal. By half-life is commonly meant the time in which the quantity being followed falls by half. As usually defined, the pIC50 is the negative decadic logarithm of the IC50, by convention in mol/L. Lower therefore signals a large IC50.

In data set [1] the test system is Human immunodeficiency virus 1. In words: Antiviral activity against HIV-1 (strain RF) infected MT-4 cells. It counts as functional, organism-based. As to conditions: Human immunodeficiency virus 1, MT4.
Data set [2] has as its system C8166. Kind of data set: Inhibitory activity against syncytia formation in infected C8166 cells. It counts as functional, cell-based. As to conditions: Homo sapiens.
Data set [3] can be described thus: Toxicity against uninfected MT-4 cells. It counts as cell-based, MT4. The note with it: human.
The subject of data set [4] is C8166. Kind of data set: Inhibitory activity against P24 antigen formation in infected C8166 cells. In kind it is functional, cell-based. The note with it: Homo sapiens.
Data set [5] can be described thus: Half life period in mouse serum. In kind it is ADME, organism-based.
The nature of data set [6]: Half life period in mouse S9 liver preparation. In kind it is ADME. The note with it: liver S9 fraction.
The target of data set [7] is Human immunodeficiency virus type 1 reverse transcriptase (Human immunodeficiency virus 1, UniProt Q72547). Kind of data set: Inhibitory activity against HIV-1 reverse transcriptase.
Data set [8] relates to MT4. In words: Antiviral activity against HIV-1 resistant to 2-(2-Benzoyl-4-chloro-phenyl)-N-[4-(3-dimethylamino-propoxy)-2-methyl-phenyl]-acetamide in MT-4 cells. In kind it is functional, cell-based. The note with it: Homo sapiens.
The subject of data set [9] is MT4. In words: Cytotoxicity against uninfected MT-4 cells. It counts as functional, cell-based, Homo sapiens.
Setting [10] is: Homo sapiens, MT4, read-out: IC50.

pIC50: −log10 of the molar value. Values after ≈ are worked out from the molar mass of the structure shown.

`O=C(c1ccccc1)c1cc(Cl)ccc1OCC(=O)N1CCc2ccccc2C1`: the IC50 in data set [1] was 0.014 mg/L (≈ 0.0345 µM); in data set [2], 0.011 mg/L (≈ 0.0271 µM); in [3], more than 0.5 mg/L; in data set [4], 0.016 mg/L (≈ 0.0394 µM). For the same molecule, the half-life in [5] is 1.2 h; in data set [6] it was 2.8 h. The molecule further showed a pIC50 in [7] of 7.83.

`O=C(COc1ccc(-n2ccnc2)cc1C(=O)c1ccccc1)Nc1ccccc1`: the figures for the IC50 in [1] and in data set [3] were more than 10 mg/L and 10 mg/L (≈ 25.2 µM), respectively. Moreover, the pIC50 in data set [7] is less than 4.60.

Regarding `CCN(CC)CCOc1ccc(NC(=O)COc2ccccc2C(=O)c2ccc(F)cc2)cc1`, the IC50 was 0.75 mg/L (≈ 1.61 µM) in [1], 0.016 mg/L (≈ 0.0344 µM) in [2], more than 0.5 mg/L in data set [3] and less than 0.05 mg/L in data set [4]. This molecule also gave a pIC50 in data set [7] of 4.67.

For `O=C(COc1ccc(Cl)cc1C(O)c1ccccc1)Nc1ccccc1` (configuration not stated), the pIC50 in [7] was less than 3.57.

For `O=C(COc1ccc(Cl)cc1C(=O)c1ccccc1)Nc1ccccc1`, the IC50 in data set [1] was 0.0004 mg/L (≈ 0.00109 µM); in [2], 0.0002 mg/L (≈ 0.000547 µM); in [3] it was more than 0.005 mg/L; in data set [4], 0.0012 mg/L (≈ 0.00328 µM). Also, the half-life in [5] and in data set [6] was less than 0.25 h each time. The pIC50 in data set [7] was 7.56.

In the case of `O=C(COc1ccc(Cl)cc1C(=O)c1cccnc1)Nc1ccccc1`, the IC50 is less than 0.01 mg/L in [1] and 10 mg/L (≈ 27.3 µM) in data set [3]. Moreover, in [7], the pIC50 was 6.36.

`O=C(COc1ccc(Cl)cc1C(=O)c1ccccc1)NC1CCCCC1` had a pIC50 in [7] of 4.41.

With `c1nc2cnncc2[nH]1`, the IC50 in data set [8] is 0.5 mg/L (≈ 4.16 µM); in data set [1], 0.004 mg/L (≈ 0.0333 µM); in data set [9] (setting [10]) it was more than 1 mg/L.

For the molecule `CCN(CC)CCOc1ccc(NC(=O)COc2ccccc2C(=O)c2ccc(OC)cc2)cc1`, the IC50 in data set [1] amounted to 0.44 mg/L (≈ 0.923 µM); in data set [2], 0.34 mg/L (≈ 0.713 µM); in data set [3], 5 mg/L (≈ 10.5 µM); in data set [4], 0.18 mg/L (≈ 0.378 µM). The molecule also gave a pIC50 in data set [7] of 4.85.

Turning to `O=C(COc1ccc(Cl)cc1C(=O)c1ccccc1)c1cc2ccccc2[nH]1`, the IC50 in [1] is 0.7 mg/L (≈ 1.8 µM); in [2], more than 50 mg/L; in data set [3], 10 mg/L (≈ 25.7 µM); in data set [4] it was more than 5 mg/L. In addition, the half-life in data set [5] was less than 0.25 h; in [6], 3.5 h. Also, the pIC50 in data set [7] was 6.79.

For the molecule `O=C(COc1ccc(Cl)cc1C(=O)C1CCCC1)Nc1ccccc1`, the IC50 in data set [1] is 0.22 mg/L (≈ 0.615 µM); in [3], more than 100 mg/L. For the same molecule, in data set [7], the pIC50 is 5.30.

For `Cc1cc(OCCCN(C)C)ccc1NC(=O)Cc1ccc(Cl)cc1C(=O)c1ccccc1`, the IC50 in data set [1] was 0.0044 mg/L (≈ 0.00946 µM); in data set [2], 0.016 mg/L (≈ 0.0344 µM); in data set [3] it was more than 0.5 mg/L; in data set [4] it was 0.0029 mg/L (≈ 0.00624 µM). Moreover, the half-life in [5] is 4.75 h; in [6], 1.8 h. Moreover, in data set [7], the pIC50 was 6.12.

Turning to `CCN(CC)CCOc1ccc(NC(=O)COc2ccccc2C(=O)c2ccccc2)cc1`, the IC50 is less than 0.001 mg/L in data set [1], 0.005 mg/L (≈ 0.0112 µM) in data set [2], more than 0.5 mg/L in data set [3] and 0.0015 mg/L (≈ 0.00336 µM) in [4]. For the same molecule, the pIC50 in data set [7] was 5.29.

As for `CN(C)CCCOc1ccc(NC(=O)Cc2ccc(Cl)cc2C(=O)c2ccccc2)cc1`, the IC50 was 0.21 mg/L (≈ 0.466 µM) in data set [1] and 10 mg/L (≈ 22.2 µM) in data set [3]. In data set [7], this molecule showed a pIC50 of 6.35.

`O=C(c1ccccc1)c1cc(Cl)ccc1OCc1nc2ccccc2[nH]1`: the IC50 is 0.31 mg/L (≈ 0.854 µM) in [1], 0.052 mg/L (≈ 0.143 µM) in data set [2], more than 0.5 mg/L in data set [3] and 0.032 mg/L (≈ 0.0882 µM) in data set [4]. Moreover, the half-life in [5] and in data set [6] was more than 6 h each time. Further, the negative-log IC50 (pIC50) in [7] was 5.85.

For `O=C(COc1ccc(Cl)cc1C(=O)c1ccccc1)Cc1ccccc1`, the IC50 in data set [1] and in data set [3] was more than 100 mg/L each time. The same molecule had a pIC50 in data set [7] of 4.48.

As for `Cc1cc(OCCCN(C)C)cc(C)c1NC(=O)Cc1ccc(Cl)cc1C(=O)c1ccccc1`, in data set [7], the pIC50 was less than 3.98.

Molecule `O=C(COc1ccc(Cl)c(Cl)c1C(=O)c1ccccc1)Nc1ccccc1` gave a pIC50 in data set [7] of less than 3.60.

With `CCN(CC)CCOc1ccc(NC(=O)COc2ccc(Cl)cc2C(=O)c2ccccc2)cc1`, the IC50 is more than 10 mg/L in data set [1] and 10 mg/L (≈ 20.8 µM) in data set [3]. The molecule further gave a pIC50 in [7] of 6.03.

Turning to `O=C(COc1c(Cl)cc(Cl)cc1C(=O)c1ccccc1)Nc1ccccc1`, in data set [7], the pIC50 was less than 3.60.

Turning to `Cc1cc(OCCCN(C)C)ccc1NC(=O)c1ccc(Cl)cc1C(=O)c1ccccc1`, the pIC50 in data set [7] was less than 3.65.

`CN(C)CCCOc1ccc(NC(=O)COc2ccc(Cl)cc2C(=O)c2ccccc2)cc1`: the IC50 in [1] was less than 0.01 mg/L; in data set [2] it was 0.0009 mg/L (≈ 0.00193 µM); in data set [3] it was more than 0.5 mg/L; in data set [4], less than 0.0005 mg/L. Also, the half-life in [5] is less than 0.25 h; in data set [6], more than 2 h. The molecule further had a pIC50 in data set [7] of 6.68.

Take `Cc1ccccc1CNC(=O)COc1ccc(Cl)cc1C(=O)c1ccccc1`: the IC50 in data set [1] worked out at 0.028 mg/L (≈ 0.0711 µM); in [2], 0.05 mg/L (≈ 0.127 µM); in data set [3], 10 mg/L (≈ 25.4 µM); in data set [4], 0.032 mg/L (≈ 0.0812 µM). The half-life in data set [5] was 2.8 h; in [6], more than 6 h. Also, in data set [7], the pIC50 was 5.20.

`O=C(COc1ccc(F)cc1C(=O)c1ccccc1)Nc1ccccc1`: the IC50 in data set [1] was 0.09 mg/L (≈ 0.258 µM); in data set [2], 0.014 mg/L (≈ 0.0401 µM); in data set [3], 10 mg/L (≈ 28.6 µM); in data set [4], 0.006 mg/L (≈ 0.0172 µM). In addition, in data set [7], the pIC50 is 8.07.

Take `O=C(c1ccccc1)c1cc(Cl)ccc1OCCNc1ccccc1`: in [7], the negative-log IC50 (pIC50) is less than 3.55.

Turning to `O=C(COc1cc(Cl)c(Cl)cc1C(=O)c1ccccc1)Nc1ccccc1`, the IC50 in data set [1] was determined as 0.023 mg/L (≈ 0.0575 µM); in [3] it was 100 mg/L (≈ 250 µM). This molecule also gave a pIC50 in data set [7] of 7.46.

With `CCc1cc(OCCCN(C)C)ccc1NC(=O)Cc1ccc(Cl)cc1C(=O)c1ccccc1`, the IC50 is 0.21 mg/L (≈ 0.438 µM) in [1] and 10 mg/L (≈ 20.9 µM) in data set [3]. Also, in [7], the pIC50 was 5.28.

The molecule `O=C(c1ccccc1)c1cc(Cl)ccc1OC/C=C/c1ccccc1` gave a pIC50 in data set [7] of less than 3.54.

`CCN(CC)CCOc1ccc(NC(=O)COc2cc(OC)ccc2C(=O)c2ccccc2)cc1`: the 50% inhibitory concentration (IC50) was less than 0.01 mg/L in [1], 0.05 mg/L (≈ 0.105 µM) in data set [2], 5 mg/L (≈ 10.5 µM) in data set [3] and 0.013 mg/L (≈ 0.0273 µM) in [4]. For the same molecule, in data set [7], the pIC50 was 4.88.

On to `CCc1cc(NCc2nc3c(Cl)ccc(Cl)c3o2)c(O)nc1C` [L-697661], for which the IC50 was 0.0023 mg/L (≈ 0.00653 µM) in [8], 0.0017 mg/L (≈ 0.00483 µM) in data set [1], 100 mg/L (≈ 284 µM) in [9] (setting [10]) and 100 mg/L (≈ 284 µM) in data set [9] (mt4).

Consider `Nc1ccn([C@@H]2CS[C@H](CO)O2)c(=O)n1` [LAMIVUDINE], for which the IC50 in data set [8] was 0.048 mg/L (≈ 0.209 µM); in [1] it was 0.043 mg/L (≈ 0.188 µM); in [9] (setting [10]), more than 100 mg/L.

Consider `Cc1ccnc2c1NC(=O)c1cccnc1N2C1CC1` [NEVIRAPINE], for which the IC50 in [8] was 0.22 mg/L (≈ 0.826 µM); in data set [1], 0.01 mg/L (≈ 0.0376 µM); in data set [9] (setting [10]), more than 10 mg/L.

Regarding `CC(C)(C)NC(=O)[C@@H]1C[C@@H]2CCCC[C@@H]2CN1C[C@@H](O)[C@H](Cc1ccccc1)NC(=O)[C@H](CC(N)=O)NC(=O)c1ccc2ccccc2n1` [SAQUINAVIR], the IC50 in data set [8] was 0.0038 mg/L (≈ 0.00566 µM); in [1], 0.028 mg/L (≈ 0.0417 µM); in [9] (setting [10]), more than 1 mg/L.
